{
  "source": "patent US3947466A",
  "about": "“Intermediates and process for the production of certain triazolobenzodiazepines” (priority 1974, dated 1976)",
  "key": {"[1]": {"assay": "Pedestal test: tranquilized mice stay on the pedestal for more than 1 minute", "assay_type": "in vivo", "conditions": "Mus musculus, ip", "experimental": "Pedestal Test: The untreated mouse leaves the pedestal in less than a minute to climb back to the floor of the standard mouse box. Tranquilized mice will stay on the pedestal for more than 1 minute. The ED50 (intraperitoneal administration) was 0.8 mg./kg."}, "[2]": {"system": "apomorphine hydrochloride", "conditions": "TABLE V"}, "[3]": {"assay": "Chimney test: ability of mice to back up and out of a vertical glass cylinder within 30 seconds", "assay_type": "in vivo", "conditions": "Mus musculus, ip", "source_text": "The test determines the ability of mice to back up and out of a vertical glass cylinder within 30 seconds. At the effective dosage, 50% of the mice failed doing it."}, "oxotremorine [4]": {"system": "oxotremorine", "assay": "animal or person", "assay_type": "in vivo, mice (male, Strain CF=Carworth Farms)", "conditions": "for Oxo (Oxotremorine test): TABLE V; for ED50: Mus musculus, ip, 0.5 h, read-out: ED50, oxotremorine hypothermia antagonism (temperature at least 4° C. higher than control mice)", "experimental": "Hypothermic tests with oxotremorine: [1-(4-pyrrolidino-2-butynyl)-2-pyrrolidinone].\nThe present compounds were tested as follows. […] The lowering of the body temperature was measured rectally with an electronic thermometer, before and 30 minutes after drug administration. After the drug administration the mice were kept at 19° C. in cages. A 4° difference between the control mice (oxotremorine alone) and the treated mice (oxotremorine and test compound) was used to indicate the antagonistic action of the test compound."}, "LD50 values in mice": {"assay": "LD50 values in mice", "conditions": "mouse, in vivo"}, "nicotine salicylate": {"system": "nicotine salicylate", "assay": "animal or person", "assay_type": "in vivo, mice", "conditions": "for ED50: Mus musculus, ip", "experimental": "Nicotine antagonism test: Mice in a group of 6 are injected with the test compound, 8-chloro-1-[(dimethylamino)methyl]-6-phenyl-4H-s-triazolo[4,3-a][1,4]benzodiazepine. Thirty minutes later the mice, including control (untreated) mice, are injected with nicotine salicylate (2 mg./kg.). The control mice show overstimulation, i.e., (1) running convulsions (2) tonic extensor fits; followed by (3) death."}, "yohimbine hydrochloride": {"system": "yohimbine hydrochloride", "assay": "in vivo", "conditions": "for YO (Yohimbine test): TABLE V; for ED50: Mus musculus, 2 h, read-out: ED50, yohimbine potentiation (causes 50% of the mice to die)", "experimental": "(§1) Ten male CF mice, 18-22 g., were injected with the anti-depressant and 30 minutes later with 30 […] hydrochloride (YCl) in saline solution. After two hours, the LD50 were determined."}, "[5]": {"assay": "Dish test: mice remaining in the dish for more than 3 minutes (tranquilization)", "assay_type": "in vivo", "conditions": "Mus musculus, ip", "experimental": "Dish test: Mice in Petri dishes (10 cm. diameter, 5 cm. high, partially embedded in wood shavings), climb out in a very short time, when not treated. Mice remaining in the dish for more than 3 minutes indicates tranquilization."}, "[6]": {"system": "apomorphine hydrochloride", "assay": "animal or person", "conditions": "Mus musculus, ip, 0.5 h, read-out: ED50, potentiation of apomorphine gnawing"}, "strychnine sulfate": {"system": "strychnine sulfate", "assay": "animal or person", "assay_type": "in vivo, mice", "experimental": "The test consists in orally administering into groups of 6 mice the test compound, and 30 minutes later 3 mg./kg. strychnine sulfate intraperitoneally. The survivors after 4 hours reflect the activity of the compound as a muscle relaxant and antispasmodic."}, "oxotremorine [7]": {"system": "oxotremorine", "conditions": "cited from earlier work; for effect on oxotremorine-induced temperature decrease / hypothermic response / hypothermic response: mice, background statement"}, "in vivo": {"assay": "in vivo", "conditions": "mouse, in vivo, ip", "experimental": "as §1"}, "[8]": {"conditions": "mice, route not given, TABLE IV"}},
  "note": "Entries after “also recorded” stand apart in the source; their conditions may differ. Where a name gives a salt, the structure may show the parent alone. Read-outs that look alike come from different tables or passages of the source.",
  "data": [
    {"smiles": "CN(C)Cc1nnc2n1-c1ccccc1C(c1ccccc1Cl)=NC2", "note": "[1-[(dimethylamino)methyl]-6-(o-chlorophenyl)-4H-s-triazolo-[4,3-a][1,4]benzodiazepine]", "values": [
      {"measurement": "ED50", "setting": "[1]; read-out: ED50 P", "value": 22, "unit": "mg/kg"},
      {"measurement": "Ap (Apomorphine test)", "setting": "[2]", "value": "> 30"},
      {"measurement": "ED50", "setting": "[3]; read-out: ED50 Ch", "value": 0.35, "unit": "mg/kg"},
      {"measurement": "Oxo (Oxotremorine test)", "setting": "oxotremorine [4]", "value": "> 30"},
      {"measurement": "LD50", "setting": "LD50 values in mice; TABLE V", "value": "> 100", "unit": "mg/kg"},
      {"measurement": "ED50", "setting": "nicotine salicylate; read-out: ED50 Ni", "value": 0.15, "unit": "mg/kg"},
      {"measurement": "YO (Yohimbine test)", "setting": "yohimbine hydrochloride", "value": "> 30"},
      {"measurement": "ED50", "setting": "[5]; read-out: ED50 D", "value": 0.8, "unit": "mg/kg"}
    ]},
    {"smiles": "NCc1nnc2n1-c1ccc(Cl)cc1C(c1ccccc1)=NC2", "note": "[8-Chloro-1-(aminomethyl)-6-phenyl-4H-s-triazolo[4,3-a][1,4]benzodiazepine]", "values": [
      {"measurement": "Ap (Apomorphine test)", "setting": "[2]", "value": 2.6},
      {"measurement": "Oxo (Oxotremorine test)", "setting": "oxotremorine [4]", "value": 29.7},
      {"measurement": "LD50", "setting": "LD50 values in mice; TABLE V", "value": "> 100", "unit": "mg/kg"},
      {"measurement": "YO (Yohimbine test)", "setting": "yohimbine hydrochloride", "value": 35.4}
    ]},
    {"smiles": "CCN(CC)Cc1nnc2n1-c1ccc(Cl)cc1C(c1ccccc1Cl)=NC2", "note": "[8-Chloro-1-[(diethylamino)methyl]-6-(o-chlorophenyl)-4H-s-triazolo[4,3-a][1,4]benzodiazepine]", "values": [
      {"measurement": "ED50", "setting": "[1]; read-out: ED50 P", "value": 0.4, "unit": "mg/kg"},
      {"measurement": "ED50", "setting": "[3]; read-out: ED50 Ch", "value": 0.63, "unit": "mg/kg"},
      {"measurement": "ED50", "setting": "nicotine salicylate; read-out: ED50 Ni", "value": 0.08, "unit": "mg/kg"},
      {"measurement": "ED50", "setting": "[5]; read-out: ED50 D", "value": 0.11, "unit": "mg/kg"}
    ]},
    {"smiles": "CCN(CC)Cc1nnc2n1-c1ccc(Cl)cc1C(c1ccccc1)=NC2", "note": "[8-Chloro-1-[(diethylamino)methyl]-6-phenyl-4H-s-triazolo[4,3-a][1,4]benzodiazepine]", "values": [
      {"measurement": "ED50", "setting": "[6]", "value": 14.9, "unit": "mg/kg"},
      {"measurement": "ED50", "setting": "oxotremorine [4]; mice, oxotremorine 1 mg. i.p., 30 minutes, second TABLE I", "value": 50, "unit": "mg/kg"},
      {"measurement": "LD50", "setting": "LD50 values in mice; [8]", "value": "> 100", "unit": "mg/kg"},
      {"measurement": "ED50", "setting": "yohimbine hydrochloride", "value": 42, "unit": "mg/kg"}
    ]},
    {"smiles": "CN(C)Cc1nnc2n1-c1ccc(Cl)cc1C(c1ccccc1Cl)=NC2", "note": "[8-Chloro-1-[(dimethylamino)methyl]-6-(o-chlorophenyl)-4H-s-triazolo[4,3-a][1,4]benzodiazepine]", "values": [
      {"measurement": "ED50", "setting": "[1]; read-out: ED50 P", "value": 0.36, "unit": "mg/kg"},
      {"measurement": "Ap (Apomorphine test)", "setting": "[2]", "value": 17.8},
      {"measurement": "ED50", "setting": "[3]; read-out: ED50 Ch", "value": 0.2, "unit": "mg/kg"},
      {"measurement": "Oxo (Oxotremorine test)", "setting": "oxotremorine [4]", "value": "> 30"},
      {"measurement": "LD50", "setting": "LD50 values in mice; TABLE V", "value": "> 100", "unit": "mg/kg"},
      {"measurement": "ED50", "setting": "nicotine salicylate; read-out: ED50 Ni", "value": 0.63, "unit": "mg/kg"},
      {"measurement": "YO (Yohimbine test)", "setting": "yohimbine hydrochloride", "value": "> 30"},
      {"measurement": "ED50", "setting": "[5]; read-out: ED50 D", "value": 0.36, "unit": "mg/kg"}
    ]},
    {"smiles": "CN(C)Cc1nnc2n1-c1ccc(Cl)cc1C(c1ccccc1)=NC2", "note": "[8-Chloro-1-[(dimethylamino)methyl]-6-phenyl-4H-s-triazolo[4,3-a][1,4]benzodiazepine]", "values": [
      {"measurement": "ED50", "setting": "[1]; read-out: ED50, pedestal test", "value": 0.8, "unit": "mg/kg"},
      {"measurement": "ED50", "setting": "[6]", "value": 5.3, "unit": "mg/kg"},
      {"measurement": "ED50", "setting": "[3]; read-out: effective intraperitoneal dosage for 50% of mice (ED50), chimney test", "value": 2.3, "unit": "mg/kg"},
      {"measurement": "ED50", "setting": "oxotremorine [4]", "value": 5.3, "unit": "mg/kg"},
      {"measurement": "LD50", "setting": "LD50 values in mice; [8]", "value": 476, "unit": "mg/kg"},
      {"measurement": "ED50", "setting": "nicotine salicylate; read-out: dosage protecting 50% of the animals against death (nicotine antagonism)", "value": 0.11, "unit": "mg/kg"},
      {"measurement": "ED50", "setting": "yohimbine hydrochloride", "value": 12.5, "unit": "mg/kg"},
      {"measurement": "ED50", "setting": "strychnine sulfate; Mus musculus, po, 4 h, read-out: effective dosage ED50, antagonism to strychnine", "value": 50, "unit": "mg/kg"},
      {"measurement": "ED50", "setting": "[5]; read-out: ED50, dish test", "value": 0.28, "unit": "mg/kg"}
    ]},
    {"smiles": "CN(C)CCC=C1c2ccccc2COc2ccccc21", "note": "[Doxepine, reference compound]", "values": [
      {"measurement": "ED50", "setting": "[6]", "value": 17.7, "unit": "mg/kg"},
      {"measurement": "ED50", "setting": "oxotremorine [4]", "value": 14.9, "unit": "mg/kg"},
      {"measurement": "effect on oxotremorine-induced temperature decrease / hypothermic response", "setting": "oxotremorine [7]", "value": "antagonized"},
      {"measurement": "LD50", "setting": "LD50 values in mice; [8]", "value": 126, "unit": "mg/kg"},
      {"measurement": "ED50", "setting": "yohimbine hydrochloride", "value": 17.7, "unit": "mg/kg"}
    ]},
    {"smiles": "CN(C)CCCN1c2ccccc2CCc2ccccc21", "note": "[Imipramine, reference compound]", "values": [
      {"measurement": "ED50", "setting": "[6]", "value": 17.7, "unit": "mg/kg"},
      {"measurement": "ED50", "setting": "oxotremorine [4]", "value": 5.3, "unit": "mg/kg"},
      {"measurement": "ED50", "setting": "yohimbine hydrochloride", "value": 4.4, "unit": "mg/kg"}
    ]},
    {"smiles": "O=C1CCCN1CC#CCN1CCCC1", "note": "[Oxotremorine, 1-(4-pyrrolidino-2-butynyl)-2-pyrrolidinone]", "values": [
      {"measurement": "decrease of body temperature", "setting": "oxotremorine [7]; 0.6 mg./kg. oxotremorine, mouse kept at room temperature", "value": "about 13 ° F."},
      {"measurement": "hypothermic response", "setting": "oxotremorine [7]", "value": "produces hypothermic responses in mice; also recorded: very pronounced hypothermia"}
    ]},
    {"smiles": "CN1CCc2cccc3c2[C@H]1Cc1ccc(O)c(O)c1-3", "note": "[apomorphine]", "values": [
      {"measurement": "hypothermic response", "setting": "oxotremorine [7]", "value": "produces hypothermic responses in mice"}
    ]},
    {"smiles": "CN1[C@@H]2CC[C@H]1C[C@@H](OC(=O)C(CO)c1ccccc1)C2", "note": "(stereo partly shown) [atropine]", "values": [
      {"measurement": "effect on oxotremorine-induced temperature decrease / hypothermic response", "setting": "oxotremorine [7]", "value": "blocked"}
    ]},
    {"smiles": "CNCCCN1c2ccccc2CCc2ccccc21", "note": "[desipramine]", "values": [
      {"measurement": "effect on oxotremorine-induced temperature decrease / hypothermic response", "setting": "oxotremorine [7]", "value": "antagonized"}
    ]},
    {"smiles": "CN1CCC[C@H]1c1cccnc1", "note": "[nicotine salicylate, reference compound]", "values": [
      {"measurement": "effect of nicotine salicylate in control mice", "setting": "nicotine salicylate; 2 mg./kg., injected", "value": "overstimulation"}
    ]},
    {"smiles": "O=C1C[C@@H]2OCC=C3CN4CC[C@]56c7ccccc7N1[C@H]5[C@H]2[C@H]3C[C@H]46", "note": "[strychnine sulfate, reference compound]", "values": [
      {"measurement": "lethality of strychnine sulfate in control mice", "setting": "strychnine sulfate; 3 mg./kg. intraperitoneally", "value": "routinely fatal to all the control mice"}
    ]},
    {"smiles": "COc1cc2c(cc1OC)C1CC(=O)C(CC(C)C)CN1CC2", "note": "(stereo not shown) [tetrabenazine]", "values": [
      {"measurement": "hypothermic response", "setting": "oxotremorine [7]", "value": "produces hypothermic responses in mice"}
    ]},
    {"smiles": "COC(=O)[C@@H]1[C@H]2C[C@H]3c4[nH]c5ccccc5c4CCN3C[C@@H]2CC[C@@H]1O", "note": "[yohimbine hydrochloride]", "values": [
      {"measurement": "LD50", "setting": "in vivo", "value": 45, "unit": "mg/kg"},
      {"measurement": "lethality of yohimbine hydrochloride alone", "setting": "yohimbine hydrochloride; 30 mg./kg. (30 mg.), mice", "value": "non-lethal"}
    ]}
  ]
}
